Test results as given in PubChem BioAssay AID1963849 (Molecular Pharmacology Branch, DTP, NCI, 2024).
pIC50: −log10 of the molar value.

Tested on: 299254-011-R-J1-PDC complex spheroid viability
Test: Anticancer human tumor 299254-011-R-J1-PDC patient-derived melanoma cell line growth inhibition [POLQ]
Conditions: for pIC50: curve of first compound; for viability, T/C: stronger effect = lower value
Procedure, shortened: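 Patient-derived tumour cells were co-cultured with HUVEC and mesenchymal stem cells as multicellular spheroids at 37 °C. They were treated with POLQ inhibitors (novobiocin, ART-558, RP6685) alone or combined with other agents. Top concentrations were at or near clinical Cmax (otherwise 10 microM; SN-38 at 1 microM), decreasing in half-log steps.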

[1] = second compound 0.0316 µM, first compound 0.0316 µM
[2] = second compound 0.0316 µM, first compound 0.1 µM
[3] = second compound 0.0316 µM, first compound 0.316 µM
[4] = second compound 0.0316 µM, first compound 1 µM
[5] = second compound 0.0316 µM, first compound 3.16 µM
[6] = second compound 0.0316 µM, first compound 10 µM
[7] = second compound 0.1 µM, first compound 0.0316 µM
[8] = second compound 0.1 µM, first compound 0.1 µM
[9] = second compound 0.1 µM, first compound 0.316 µM
[10] = second compound 0.1 µM, first compound 1 µM
[11] = second compound 0.1 µM, first compound 3.16 µM
[12] = second compound 0.1 µM, first compound 10 µM
[13] = second compound 0.316 µM, first compound 0.0316 µM
[14] = second compound 0.316 µM, first compound 0.1 µM
[15] = second compound 0.316 µM, first compound 0.316 µM
[16] = second compound 0.316 µM, first compound 1 µM
[17] = second compound 0.316 µM, first compound 3.16 µM
[18] = second compound 0.316 µM, first compound 10 µM
[19] = second compound 1 µM, first compound 0.0316 µM
[20] = second compound 1 µM, first compound 0.1 µM
[21] = second compound 1 µM, first compound 0.316 µM
[22] = second compound 1 µM, first compound 1 µM
[23] = second compound 1 µM, first compound 3.16 µM
[24] = second compound 1 µM, first compound 10 µM
[25] = second compound 3.16 µM, first compound 0.0316 µM
[26] = second compound 3.16 µM, first compound 0.1 µM
[27] = second compound 3.16 µM, first compound 0.316 µM
[28] = second compound 3.16 µM, first compound 1 µM
[29] = second compound 3.16 µM, first compound 3.16 µM
[30] = second compound 3.16 µM, first compound 10 µM
[31] = second compound 10 µM, first compound 0.0316 µM
[32] = second compound 10 µM, first compound 0.1 µM
[33] = second compound 10 µM, first compound 0.316 µM
[34] = second compound 10 µM, first compound 1 µM
[35] = second compound 10 µM, first compound 3.16 µM
[36] = second compound 10 µM, first compound 10 µM
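Further: spheroids exposed to drugs for one week before measurement.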
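Wherever viability, T/C is given: percent viability relative to DMSO vehicle control taken as 100%.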

C#Cc1c(F)ccc2cc(O)cc(-c3ncc4c(N5CC6CCC(C5)N6)nc(OCC56CCCN5CC(F)C6)nc4c3F)c12 (stereo unspecified) + Cc1cccc(N(C)C(=O)C2C(O)CCN2c2nc(C)cc(C(F)(F)F)c2C#N)c1
pIC50 (second compound 0.0316 µM): < 5.00 | pIC50 (second compound 0.1 µM): < 5.00 | pIC50 (second compound 0.316 µM): < 5.00 | pIC50 (second compound 1 µM): < 5.00 | pIC50 (second compound 3.16 µM): < 5.00 | pIC50 (second compound 10 µM): < 5.00 | viability, T/C [1]: 113% | viability, T/C [2]: 102% | viability, T/C [3]: 123% | viability, T/C [4]: 120% | viability, T/C [5]: 124% | viability, T/C [6]: 93.9% | viability, T/C [7]: 105% | viability, T/C [8]: 122% | viability, T/C [9]: 120% | viability, T/C [10]: 125% | viability, T/C [11]: 97.8% | viability, T/C [12]: 85.5% | viability, T/C [13]: 105% | viability, T/C [14]: 108% | viability, T/C [15]: 124% | viability, T/C [16]: 99.2% | viability, T/C [17]: 114% | viability, T/C [18]: 75.5% | viability, T/C [19]: 123% | viability, T/C [20]: 109% | viability, T/C [21]: 113% | viability, T/C [22]: 113% | viability, T/C [23]: 103% | viability, T/C [24]: 74.6% | viability, T/C [25]: 114% | viability, T/C [26]: 99.9% | viability, T/C [27]: 118% | viability, T/C [28]: 111% | viability, T/C [29]: 92% | viability, T/C [30]: 78.1% | viability, T/C [31]: 110% | viability, T/C [32]: 108% | viability, T/C [33]: 108% | viability, T/C [34]: 105% | viability, T/C [35]: 80.1% | viability, T/C [36]: 64.2%

CC1COCCN1c1cc(C2(O)CC3CCC(C2)O3)c2cnn(-c3ccn[nH]3)c2n1 (stereo unspecified) + Cc1cccc(N(C)C(=O)C2C(O)CCN2c2nc(C)cc(C(F)(F)F)c2C#N)c1
pIC50 (second compound 0.0316 µM): 6.74 | pIC50 (second compound 0.1 µM): 6.65 | pIC50 (second compound 0.316 µM): 6.63 | pIC50 (second compound 1 µM): 6.82 | pIC50 (second compound 3.16 µM): 6.77 | pIC50 (second compound 10 µM): 7.09 | viability, T/C [1]: 76.1% | viability, T/C [2]: 65.7% | viability, T/C [3]: 35.2% | viability, T/C [4]: 21.1% | viability, T/C [5]: 17.5% | viability, T/C [6]: 10.6% | viability, T/C [7]: 93.9% | viability, T/C [8]: 69.5% | viability, T/C [9]: 39.1% | viability, T/C [10]: 27.4% | viability, T/C [11]: 17.4% | viability, T/C [12]: 9.48% | viability, T/C [13]: 81.4% | viability, T/C [14]: 64.7% | viability, T/C [15]: 46.5% | viability, T/C [16]: 22.8% | viability, T/C [17]: 18.6% | viability, T/C [18]: 7.95% | viability, T/C [19]: 99.5% | viability, T/C [20]: 56.8% | viability, T/C [21]: 36% | viability, T/C [22]: 24.1% | viability, T/C [23]: 15.5% | viability, T/C [24]: 10.2% | viability, T/C [25]: 97.1% | viability, T/C [26]: 61.8% | viability, T/C [27]: 35.5% | viability, T/C [28]: 22.1% | viability, T/C [29]: 14.2% | viability, T/C [30]: 10.6% | viability, T/C [31]: 73.5% | viability, T/C [32]: 44.5% | viability, T/C [33]: 27.2% | viability, T/C [34]: 20.2% | viability, T/C [35]: 14.2% | viability, T/C [36]: 9.04%

CCc1cc2c(N3CCc4c(cc(Cn5ccnc5)cc4-c4cn(C)nc4C(F)(F)F)C3=O)cc(C)nc2c(OC)n1 + Cc1cccc(N(C)C(=O)C2C(O)CCN2c2nc(C)cc(C(F)(F)F)c2C#N)c1
pIC50 (second compound 0.0316 µM): < 5.00 | pIC50 (second compound 0.1 µM): < 5.00 | pIC50 (second compound 0.316 µM): < 5.00 | pIC50 (second compound 1 µM): < 5.00 | pIC50 (second compound 3.16 µM): < 5.00 | pIC50 (second compound 10 µM): < 5.00 | viability, T/C [1]: 96.3% | viability, T/C [2]: 92.5% | viability, T/C [3]: 96.6% | viability, T/C [4]: 104% | viability, T/C [5]: 94.8% | viability, T/C [6]: 61.3% | viability, T/C [7]: 109% | viability, T/C [8]: 109% | viability, T/C [9]: 90.3% | viability, T/C [10]: 94.8% | viability, T/C [11]: 80.9% | viability, T/C [12]: 71.3% | viability, T/C [13]: 108% | viability, T/C [14]: 115% | viability, T/C [15]: 121% | viability, T/C [16]: 106% | viability, T/C [17]: 87.9% | viability, T/C [18]: 65.3% | viability, T/C [19]: 105% | viability, T/C [20]: 100% | viability, T/C [21]: 99.7% | viability, T/C [22]: 90.2% | viability, T/C [23]: 88.3% | viability, T/C [24]: 58.5% | viability, T/C [25]: 117% | viability, T/C [26]: 98.3% | viability, T/C [27]: 95.3% | viability, T/C [28]: 84.5% | viability, T/C [29]: 80.2% | viability, T/C [30]: 70.2% | viability, T/C [31]: 109% | viability, T/C [32]: 117% | viability, T/C [33]: 106% | viability, T/C [34]: 82.2% | viability, T/C [35]: 77.8% | viability, T/C [36]: 58.6%
